Positions count from the first letter of the chain named. Names may count otherwise.
Experiments:
[1] = tested on: human pancreatic adenocarcinoma cell lines; settings: 4-fold overexpression of mitochondrial deoxyguanosine kinase; cited from earlier work
[2] = target: T1, Dictyostelium NDP Kinase N119S (Dictyostelium discoideum, UniProt P22887, N119S); experiment: Pre-steady-state fluorescence stopped-flow phosphotransfer from nucleoside triphosphates, N119S Dd-NDPK; format: biochemical; settings: pre-steady state, stopped-flow; average of three determinations
T1 construct: made in house
Method: (§1) All numbers in italics have already been published (Schneider, 1998, 2000) The kinetic constants were measured at the pre-steady-state level using a fluorescence stopped-flow device. The binding constants were determined at equilibrium by recording the increase in fluorescence (Schneider, 2000). Values are the average of three independent determinations.
(§2) As the diphosphate form of analogs were not always available, the triphosphate analogs were used to study phosphate transfer in reaction as in Scheme I. Experiments were performed with an Hi-Tech DX2 microvolume stopped-flow reaction (Schneider, 1998) at Aexc=296 nm (for Ado derivatives) or […] (for other nucleotides), 2 mm excitation slit and a 320 nm cutoff filter at the emission. After mixing NDPK (1 μM) and NTP or an analogTP (10-500 μM), the intrinsic protein fluorescence was recorded for 10-200 sec. In each experiment, 400 pairs of data were recorded, and the data from 3-4 identical experiments were averaged and fitted to a number of non-linear analytical equations using the software provided by Hi-Tech. All curves fitted to single exponentials.
(§3) The data were analyzed using the reaction scheme: [drawing 1]
(§4) In both the forward and the reverse reactions, the product concentration remains very low, thus the product binding can be neglected, and the observed single step could be attributed to the phosphotransfer (Schneider, 1998). The rate of this observed single step is: [formula]
(§5) and reaches a limiting value (k+2) at NTP saturation. Saturation could not be obtained with the concentrations of any NTP used here. Therefore, catalytic efficiencies of phosphorylation (CEphos=k+2/(k−1/k+1)=k+2/KS) were measured, which are equivalent to second order constants and allow a reliable comparison of a variety of NDP kinase substrates.

[3] = target: T2, Dictyostelium discoideum NDP kinase inactive variant EI-N119S (H122G-F64W-N119S) (Dictyostelium discoideum, UniProt P22887, F64W/H122G/N119S); experiment: biochemical; format: binding
T2 construct: made in house
Method: (§6) The binding constants were determined at equilibrium by recording the increase in fluorescence (Schneider, 2000).
(§7) Analog binding affinity was measured using a variant of Dd-NDPK (EI) as described (Schneider, 2000). […] The mutation N119S was inserted in EI in order to measure the nucleotide affinity by fluorescence titration.
(§8) Altered bases as compared to the wild type sequence are underlined in bold. Sequences were checked by automatic sequencing. The mutant EI-N119S was obtained by mutation of the previously described F64W-H122G mutated NDP kinase (here called EI) (Schneider 2000).

[4] = target: T3, Dictyostelium discoideum NDP kinase inactive variant EI (H122G-F64W) (Dictyostelium discoideum, UniProt P22887, F64W/H122G); experiment: biochemical; format: binding
T3 construct: made in house
Method: as §6, §7, §8

[5] = target: T4, Dictyostelium discoideum NDP kinase (Dd-NDPK) variant N119S, SEQ ID NO: 1 (Dictyostelium discoideum, UniProt P22887, N119S); experiment: Pre-steady-state phosphotransfer, fluorescence stopped-flow; format: biochemical; settings: catalytic efficiency of phosphotransfer, N119S, pre-steady state
T4 construct: made in house
Method: (§9) (A) Kinetics of reaction of phosphorylated Dictyostelium wild type and N119S NDP kinases by 100 μM Acyclovir diphosphate (Acy-DP). The phosphorylated enzyme was prepared with a stoichiometry #1 as described (Deville-Bonne 1996). The kinases were preincubated with ATP in excess in buffer T (50 mM Tris-HCl, pH 7.5, 5 mM MgCl2 and 75 mM KCl). The increase in fluorescence upon mixing the phospho-enzyme (1 μM, final concentration) with Acy-DP in buffer T at 20° C. was monitored with a stopped-flow. The solid lines represent the best fit of each curve to a monoexponential.
(§10) (B) Concentration dependence of the rate constant on Acy-DP concentation. The pseudo-first order rate constant for the reaction (kobs) was plotted against Acy-DP.
as §1
(§11) Wild type human NDPK-A and the mutants were expressed and purified according to Schneider et al., 2000, Mol Pharm. Recombinant wild type and mutant Dd-NDPK were obtained as described (Schneid, 1998a), except for N119Y NDP kinase which was partially purified by Q sepharose FF chromatography. Each protein was characterized by […] electrophoresis. The concentration of 17 kDa subunits of the enzyme was either determined by Bradford assay ([…]) or using an absorbance coefficient of ΔA^280=1.249 for a 1 mg/mL solution of human wild type and N115S NDPK-A, and =0.55 for wild type and mutant N119S, N119T Dd-NDP kinases, respectively.
as §2, §3, §4, §5

[6] = target: T5, Dictyostelium discoideum NDP kinase (Dd-NDPK), wild type (Dictyostelium discoideum, UniProt P22887); experiment: as above; format: biochemical; settings: catalytic efficiency of phosphotransfer, wt
T5 construct: made in house
Method: as §9, §10, §1, §11, §2, §3, §4, §5

[7] = target: T6, Dictyostelium NDP Kinase wt (Dictyostelium discoideum, UniProt P22887); experiment: Pre-steady-state fluorescence stopped-flow phosphotransfer from nucleoside triphosphates, wild type Dd-NDPK; format: biochemical; settings: average of three determinations
T6 construct: made in house
Method: as §6
After mixing NDPK (1 μM) and NTP or an analogTP (10-500 μM), the intrinsic protein fluorescence was recorded for 10-200 sec. In each experiment, 400 pairs of data were recorded, and the data from 3-4 identical experiments were averaged and fitted to a number of non-linear analytical equations using the software provided by Hi-Tech.
as §3
The rate of this observed single step is: [formula]
(§12) and reaches a limiting value (k+2) at NTP saturation. […] Therefore, catalytic efficiencies of phosphorylation (CEphos=k+2/(k−1/k+1)=k+2/KS) were measured, which are equivalent to second order constants and allow a reliable comparison of a variety of NDP kinase substrates.

[8] = target: T7, Inactive-N119S Dd-NDPK (EI-N119S) (Dictyostelium discoideum, UniProt P22887, F64W/H122G/N119S); experiment: Equilibrium fluorescence titration of nucleotide binding, inactive Dd-NDPK variant with N119S; settings: relative affinity of NTP for both enzymes
T7 construct: made in house
Method: as §1
In contrast to what is observed with natural nucleotides, the Ser mutation specifically improves the catalytic efficiency with nucleotides analogs as shown in Table I; ddGTPs and AZT-TP react, respectively, 1.5 and 4 times faster with the N119S enzyme. […] Analog binding affinity was measured using a variant of Dd-NDPK (EI) as described (Schneider, 2000). This mutant (H122G-F64W) lacks the catalytic histidine, and a tryptophan replaces the phenylalanine stacking on the base in the active site (Schneider, 2000). The mutation N119S was inserted in EI in order to measure the nucleotide affinity by fluorescence titration. The Ser contribution to the binding was evaluated from the relative affinity of NTP for both enzymes (Table I).
as §8, with “for N119S, N119T and N119Y mutations, respectively. Altered” for “Altered”

[9] = target: T8, human NDP kinase A (NDPK-A) variant L55H (Homo sapiens, UniProt P15531, L55H); experiment: Pre-steady-state phosphotransfer, fluorescence stopped-flow; format: biochemical; settings: L55H, pre-steady state
T8 construct: made in house; host or cells: E. coli
Method: (§13) FIG. 3 depicts the catalytic efficiency of NDPK-A and mutants for nucleoside analogs. The rates of phosphorylation of pure recombinant NDP kinases (1 μM) were measured at the pre-steady state in a fluorescence stopped-flow with d4T-TP (10 to 80 μM). The catalytic efficiency (expressed in M^−1s^−1) was determined from the variation of the rate as a function of analog as shown in FIG. 2 (▾, NDPK-A, ♦ L55H, ● N115S, ▪ L55H-N115S).
(§14) The activity assays were performed at the pre-steady state level.
(§15) R, the specificity change, is the ratio of the catalytic efficiencies (for analog versus natural nucleotide) of the mutant compared to the wild type enzyme.
as §11
as §2, with “Hi-Tech.” for “Hi-Tech. All curves fitted to single exponentials.”
as §3, §4, §12

[10] = target: T9, human NDP kinase A (NDPK-A) variant L55H-N115S, SEQ ID NO: 3 (Homo sapiens, UniProt P15531, L55H/N115S); experiment: as above; format: biochemical; settings: L55H-N115S, pre-steady state
T9 construct: made in house; host or cells: E. coli
Method: as §13, §14, §15, §11
as §2, with “Hi-Tech.” for “Hi-Tech. All curves fitted to single exponentials.”
as §3, §4, §12

[11] = target: T10, human NDP kinase A (NDPK-A) variant N115S, SEQ ID NO: 2 (Homo sapiens, UniProt P15531, N115S); experiment: as above; format: biochemical; settings: N115S, pre-steady state
T10 construct: made in house; host or cells: E. coli
Method: as §13, §14, §15, §11
as §2, with “Hi-Tech.” for “Hi-Tech. All curves fitted to single exponentials.”
as §3, §4, §12

[12] = target: T11, human NDP kinase A (NDPK-A, nm23-H1), wild type (Homo sapiens, UniProt P15531); experiment: as above; format: biochemical; settings: catalytic efficiency of phosphotransfer, NDPK-A, pre-steady state
T11 construct: made in house
Method: as §13, §14, §11
as §2, with “Hi-Tech.” for “Hi-Tech. All curves fitted to single exponentials.”
as §3, §4, §12

[13] = Dd-NDPK mutant; cited from earlier work
[14] = Reactivity of Dd-NDPK Asn 119 mutants for nucleotide analogs; format: biochemical; settings: Dd-NDPK mutant versus wild type
Excerpt: First, by site-directed mutagenesis, a limited set of amino acid substitutions (Ser, Thr, or Tyr) at the position of Asn 119 were introduced into the active site of Dd-NDPK. The three mutant proteins were expressed and purified to homogeneity, except N119Y, which was found unstable and poorly active (0.05% of wild type activity).

[15] = catalytic efficiency of phosphotransfer

T9 sequence (P15531 whole entry L55H/N115S): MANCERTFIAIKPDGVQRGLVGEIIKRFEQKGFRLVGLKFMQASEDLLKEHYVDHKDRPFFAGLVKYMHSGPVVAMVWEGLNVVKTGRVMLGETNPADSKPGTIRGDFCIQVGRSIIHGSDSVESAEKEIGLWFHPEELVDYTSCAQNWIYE
T1 sequence (P22887 whole entry N119S): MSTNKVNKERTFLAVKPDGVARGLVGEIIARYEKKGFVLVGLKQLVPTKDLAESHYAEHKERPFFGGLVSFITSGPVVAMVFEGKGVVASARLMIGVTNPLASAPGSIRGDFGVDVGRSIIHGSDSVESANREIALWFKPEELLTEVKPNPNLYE
T8 sequence (P15531 whole entry L55H): as the sequence (P15531 whole entry L55H/N115S) above, with S115N counted along it
T5 sequence (P22887 whole entry): as the sequence (P22887 whole entry N119S) above, with S119N counted along it
T6 sequence (P22887 whole entry): as the sequence (P22887 whole entry N119S) above, with S119N counted along it
T2 sequence (P22887 whole entry F64W/N119S/H122G): as the sequence (P22887 whole entry N119S) above, with F64W, H122G counted along it
T10 sequence (P15531 whole entry N115S): as the sequence (P15531 whole entry L55H/N115S) above, with H55L counted along it
T3 sequence (P22887 whole entry F64W/H122G): as the sequence (P22887 whole entry N119S) above, with F64W, S119N, H122G counted along it
T4 sequence (P22887 whole entry N119S): as the sequence (P22887 whole entry N119S) above
T7 sequence (P22887 whole entry F64W/N119S/H122G): as the sequence (P22887 whole entry N119S) above, with F64W, H122G counted along it
T11 sequence (P15531 whole entry): as the sequence (P15531 whole entry L55H/N115S) above, with H55L, S115N counted along it

**Q.** With Nc1nc(Cl)nc2c1ncn2[C@H]1C[C@H](O)[C@@H](CO)O1 [CdA] as the molecule, how does the sensitivity of cells [1] read?
**A.** Its sensitivity of cells is “enhanced sensitivity”.

**Q.** For Nc1nc2c(ncn2[C@@H]2O[C@H](COP(=O)(O)OP(=O)(O)OP(=O)(O)O)[C@@H](O)[C@H]2O)c(=O)[nH]1 [GTP], which “k2/Ks N119S (catalytic efficiency of phosphotransfer)” value [2] is on record?
**A.** The value was 700000 M⁻¹ s⁻¹.

**Q.** What about the Kd [3] of the same molecule?
**A.** The Kd was 1100 nM.

**Q.** What about the Kd [4] of the same molecule?
**A.** Its Kd is 150 nM.

**Q.** What about the k2/Ks [5] of the same molecule?
**A.** The k2/Ks was 700000 M⁻¹ s⁻¹.

**Q.** What about the k2/Ks [6] of the same molecule?
**A.** Its k2/Ks is 8e+06 M⁻¹ s⁻¹.

**Q.** And the “k2/Ks wt (catalytic efficiency of phosphotransfer)” value [7]?
**A.** The value was 8e+06 M⁻¹ s⁻¹.

**Q.** Which “k2/Ks N119S (catalytic efficiency of phosphotransfer)” value [2] does the source give for Nc1nc2c(ncn2COCCOP(=O)(O)OP(=O)(O)OP(=O)(O)O)c(=O)[nH]1 [acyclovirTP, acyclovir-TP] here?
**A.** The value was 1650 M⁻¹ s⁻¹.

**Q.** What about the “factor by which Ser 119 reinforces affinity (EI-N119S versus EI)” value [8] of the same molecule?
**A.** The value was 10 fold.

**Q.** With Nc1nc2c(ncn2[C@@H]2O[C@H](CO)[C@@H](O)[C@@H]2O)c(=O)[nH]1 [araG] as the molecule, how does the sensitivity of cells [1] read?
**A.** The sensitivity of cells was “enhanced sensitivity”.

**Q.** Which sensitivity of cells [1] does the source give for Nc1nc2c(ncn2[C@@H]2O[C@H](CO)[C@@H](O)C2(F)F)c(=O)[nH]1 [dFdG] here?
**A.** The sensitivity of cells was “enhanced sensitivity”.

**Q.** What does the source list for Cc1cn([C@H]2C[C@H](O)[C@@H](COP(=O)(O)OP(=O)(O)OP(=O)(O)O)O2)c(=O)[nH]c1=O [dTTP]?
**A.** k2/Ks N119S (catalytic efficiency of phosphotransfer) [2]: 430000 M⁻¹ s⁻¹; factor of rate versus wild type NDPK-A [9]: 1.8; k2/Ks [9, 15]: 2e+06 M⁻¹ s⁻¹; factor of rate versus wild type NDPK-A [10]: 0.33; k2/Ks [10, 15]: 450000 M⁻¹ s⁻¹; factor of rate versus wild type NDPK-A [11]: 0.08; k2/Ks [11, 15]: 100000 M⁻¹ s⁻¹; k2/Ks [12]: 1.2e+06 M⁻¹ s⁻¹; Kd [3]: 5200 nM; Kd [4]: 1200 nM; k2/Ks [5]: 430000 M⁻¹ s⁻¹; k2/Ks [6]: 5.7e+06 M⁻¹ s⁻¹; k2/Ks wt (catalytic efficiency of phosphotransfer) [7]: 5.7e+06 M⁻¹ s⁻¹

B1: K16A: Dd-NDPK with Lys 16 mutated into Ala (Schneider 2001) (protein, UniProt P22887 1-155, looked up, variant K16A)
Nucleoside diphosphate …: MSTNKVNKERTFLAVAPDGVARGLVGEIIARYEKKGFVLVGLKQLVPTKDLAESHYAEHKERPFFGGLVSFITSGPVVAMVFEGKGVVASARLMIGVTNPLASAPGSIRGDFGVDVGRNIIHGSDSVESANREIALWFKPEELLTEVKPNPNLYE
**Q.** For B1, which “factor of decrease of catalytic constant of phosphotransfer” value [13] is on record?
**A.** Its value is 100.

B2: N119A: Dd-NDPK with Asn 119 mutated into Ala (Schneider 2001) (protein, UniProt P22887 1-155, looked up, variant N119A)
Nucleoside diphosphate …: B1 Nucleoside diphosphate … with A16K, N119A
**Q.** Which “effect of mutation on kinetic parameters of the enzyme” value [13] does the source give for B2 here?
**A.** The value was “did not affect significantly”.

B3: N119T: Dd-NDPK with Thr at the position of Asn 119 (protein, UniProt P22887 1-155, looked up, variant N119T)
Nucleoside diphosphate …: B1 Nucleoside diphosphate … with A16K, N119T
**Q.** With B3 as the molecule, how does the “enzyme reactivity for analogs” value [14] read?
**A.** Its value is “without effect”.

From US20030207830A1, “Mutant NDP kinases for antiviral nucleotide analog activation and therapeutic uses thereof” (priority 2002, published 2003)
